Measured values as given in PMC4938410 (PLoS ONE, 2016).

Tests used:
BAS0541T = target: T1, BAS0541T (Bacillus anthracis, UniProt A0A384L3H6); conditions: labelled compound ([gamma-32P]ATP mixed with 2.5 uM ATP), 4 mM MgCl2, pH 8, 37 °C
T1 construct: gene GBAA_0572

BAS0540 = target: T2, BAS0540 (Bacillus anthracis, UniProt A0A6L7HQL1); conditions: 60 mM donor, 20 mM MgCl2, pH 7.5, 37 °C; covalent phosphorylation, probable acceptor Asp50
T2 construct: gene GBAA_0571
T2 sequence (A0A6L7HQL1 1-223 limits assumed): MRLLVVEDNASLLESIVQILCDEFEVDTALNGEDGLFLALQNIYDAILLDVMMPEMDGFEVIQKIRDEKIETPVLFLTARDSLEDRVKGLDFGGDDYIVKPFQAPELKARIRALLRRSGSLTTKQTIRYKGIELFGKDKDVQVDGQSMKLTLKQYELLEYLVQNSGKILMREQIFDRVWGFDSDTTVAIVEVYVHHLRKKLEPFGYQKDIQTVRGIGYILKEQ

T1 sequence (A0A384L3H6 190-416 limits assumed): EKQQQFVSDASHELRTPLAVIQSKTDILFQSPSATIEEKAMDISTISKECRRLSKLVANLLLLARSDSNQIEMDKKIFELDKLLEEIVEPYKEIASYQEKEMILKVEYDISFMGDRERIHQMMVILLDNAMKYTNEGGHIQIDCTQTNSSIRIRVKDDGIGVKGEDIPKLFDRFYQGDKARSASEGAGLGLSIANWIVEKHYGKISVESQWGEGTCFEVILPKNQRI

Nc1ncnc2c1ncn2[C@@H]1O[C@H](COP(=O)(O)OP(=O)(O)OP(=O)(O)O)[C@@H](O)[C@H]1O [ATP]
autophosphorylation, SDS-PAGE autoradiography (BAS0541T): Autophosphorylation was assayed by incubating the purified BAS0541T with radiolabelled ATP mixture

CC(=O)OP(=O)(O)O [acetyl phosphate]
phosphorylation by small-molecule donor, native PAGE, Coomassie (BAS0540): physiologically relevant small molecule phosphodonors, AcP and CP

NC(=O)OP(=O)(O)O [carbamoyl phosphate]
phosphorylation by small-molecule donor, native PAGE, Coomassie (BAS0540): physiologically relevant small molecule phosphodonors, AcP and CP
